Results taken from US9115212B2, “Bifunctional peptide” (REGENTIS INTERNATIONAL, priority 2012, dated 2015).
Where a SMILES comes first, the peptide text is derived from it.

What was measured:
COL1A1 gene = test: Gene expression of COL1A1 in fibroblast cultures (real-time PCR); assay type: cell-based, human; settings: fibroblasts, 100 μg/ml, 24 h, normalised to GAPDH
Protocol: (§1) The gene expression of the type I and III collagens in cultures of fibroblasts was also tested in the presence of the different peptides (pept 1 to pept 5) at a concentration of 100 μg/ml.
(§2) After 24 h of treatment with different peptides, the RNAs were extracted from the cultures using a RNeasy® kit (QIAGEN), then re-transcribed into complementary DNAs (cDNAs) using the RT2 First Strand Kit from SABiosciences™.
(§3) Real-time PCR analyses were then performed using the Mx3000p thermocycler from Stratagene in a 96-well plate. Each sample was analyzed in triplicate. The CDNAs serve as matrices in a reaction mixture containing the RT2 SYBR® Green/ROX™ qPCR Master Mix reagents (SABiosciences™) and the sense and antisense primers specific for the gene to be amplified. The reading of the fluorescence was performed at the end of each cycle and analyzed by means of the MxPro software (Stratagene). The relative expression of the COL1A1 and COL3A1 genes of interest coding for type I and type III collagen was obtained by normalizing the amount of products for amplifying the gene being studied by the amount of DNA amplified from a “domestic” gene, in this case the RNA of the gene encoding for the glyceraldehyde-3-phosphate dehydrogenase (GAPDH). As from the number of cycles corresponding to an amplification with a 100% efficiency, the relative quantity of cDNAs studied was calculated using the 2-AACT method (Livak & Schmittgen, 2001).
(§4) The control (Ctrl) corresponds to the expression of the genes coding for both types of collagen when the fibroblasts are not treated.

COL3A1 gene = test: Gene expression of COL3A1 in fibroblast cultures (real-time PCR); assay type: cell-based, human; settings: fibroblasts, 100 μg/ml, 24 h; for gene expression of type III collagen (COL3A1): normalised to GAPDH
Protocol: as §1, §2, §3, §4

type I collagen = test: Protein expression of type I collagen in dermal fibroblasts (Western Blot, ImageJ); assay type: cell-based, human; settings: peptide 100 μg/ml, vs untreated control
Protocol: (§5) The dermal fibroblasts were isolated from abdomen skin biopsies obtained during surgery operations performed on healthy patients between 35 and 75 years of age.
(§6) After removing the epidermis, the fibroblasts were recovered by enzymatic digestion, then were cultured at 37° C. in DMEM (Dulbecco's Modified Eagle Medium) medium supplemented with 10% fetal calf serum and 1% penicillin/streptomycin.
(§7) The fibroblasts were then treated with the peptide having sequence […] (SEQ. ID NO. 1), or various fragments of this sequence, at a concentration of 100 μg/ml. The various fragments tested are as follows: • peptide 1 (pept 1): peptide having the sequence […] (SEQ. ID NO. 1), • peptide 2 (pept 2): sequence […] (SEQ. ID NO. 1), wherein N-terminal and C-terminal ends correspond to N and OH, respectively • peptide 3 (pept 3): (VGVAPG (SEQ. ID NO: 29))3, wherein N-terminal and C-terminal ends correspond to N and OH, respectively • peptide 4 (pept 4): RVRLIL (SEQ. ID NO. 32, wherein N-terminal and C-terminal ends correspond to N and OH, respectively • peptide 5 (pept 5): N-Gly-Ile-Leu-OH
The protein expression of the type I collagen and the type III collagen has then been shown by Western Blot and quantified by ImageJ. The results are shown respectively in the attached FIGS. 3A and 3B. The control (Ctrl) corresponds to the expression of type I and III collagen at the level of cells not treated with peptides. The experiments were performed in triplicate.

MMP-1 [1] = target: T1, MMP-1 (Homo sapiens, UniProt P03956); test: MMP-1 activity on synthetic substrate DNP-Pro-Cha-Gly-Cys (Me)-His-Ala-Lys (N-Me-Abz)-NH2; assay type: biochemical
T1 sequence (P03956 100-469): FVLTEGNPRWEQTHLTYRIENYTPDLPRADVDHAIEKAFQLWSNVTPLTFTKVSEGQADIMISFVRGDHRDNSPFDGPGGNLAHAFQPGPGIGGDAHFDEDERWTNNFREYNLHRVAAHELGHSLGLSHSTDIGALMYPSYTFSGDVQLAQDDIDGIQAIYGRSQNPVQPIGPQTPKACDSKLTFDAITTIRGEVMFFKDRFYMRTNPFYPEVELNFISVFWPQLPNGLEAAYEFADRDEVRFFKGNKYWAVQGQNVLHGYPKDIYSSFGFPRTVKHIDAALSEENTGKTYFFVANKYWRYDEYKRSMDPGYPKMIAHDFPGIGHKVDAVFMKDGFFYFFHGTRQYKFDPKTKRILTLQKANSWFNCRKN
Protocol: The substrate of the MMP-1 that was used to test its activity in the presence of the peptide is a synthetic substrate, DNP-Pro-Cha-Gly-Cys (Me)-His-Ala-Lys (N-Me-Abz)-NH2.
A concentration of 80 ng/μl of MMP-1 was brought in the presence of 0.4 ng/μl of synthetic substrate, in the presence or not of bifunctional peptide concentrated at 10^−3, 10^−4 and 10^−5 M for 1 h.
More particularly, FIG. 7A represents a kinetics of hydrolysis of the synthetic substrate of the MMP-1 in the presence or absence (control) of the peptide at different concentrations. The enzymatic activity of the MMP-1 was evaluated by measuring the absorbance (DO) at 465 nm every 5 minutes for a period of 35 min.
FIG. 7B is a graphical representation of the dose-effect relationship between the activity of the MMP-1 and the concentration of bifunctional peptide used at time 15 min.
The Gly-Ile-Leu (GIL) sequence was selected by the inventors for its capability of occupying the P′1, P′2 and P′3 pockets of type I collagenase, the MMP-1. The activity of the latter has been tested on the synthetic substrate, the DNP-Pro-Cha-Gly-Cys (Me)-His-Ala-Lys(N-Me-Abz)-NH2, in the presence or absence of the peptide 5 having the Gly-Ile-Leu (GIL) sequence at concentrations of 10^−5, 10^−4 and 10^−3 M.

type III collagen = test: Protein expression of type III collagen in dermal fibroblasts (Western Blot, ImageJ); assay type: cell-based, human; settings: peptide 100 μg/ml
Protocol: as §5, §6, §7
The protein expression of the type I collagen and the type III collagen has then been shown by Western Blot and quantified by ImageJ. The results are shown respectively in the attached FIGS. 3A and 3B. […]

urokinase [2] = target: T2, urokinase (Homo sapiens, UniProt P00749); test: Urokinase activity on synthetic substrate S2444; assay type: biochemical
Protocol: The activity of the urokinase on its synthetic substrate, D-Glu-Gly-Arg+NHPhNO2 L-Pyroglutamyl-glycyl-L-arginine-p-Nitroaniline hydrochloride (2444) has been tested in the presence and absence of the peptide according to the invention at different concentrations.
A kinetics of hydrolysis of the substrate S2444 […] by the urokinase (9.25*10^−6 mM) was carried out in the presence of the bifunctional peptide having the sequence […] (SEQ. ID NO. 1) and concentrated at 10^−3, 10^−4 and 10^−5 M for 1 hour. The control corresponds to the kinetics in the absence of peptide. The enzyme activity was evaluated by measuring the absorbance (DO) at 405 nm every 5 minutes for a period of 35 min.
FIG. 6B is a graphical representation of the dose/effect relationship between the activity of the urokinase and the concentration of the bifunctional peptide used at time 15 min. The dotted line in the figure permits to determine the IC50, i.e. the peptide concentration required to reduce the activity of the urokinase by 50%.

toxicity genes = test: Toxicity genes through the SAM (Significance Analysis of Microarrays) statistical approach; assay type: cell-based
Protocol: (§8) According to an embodiment, the bifunctional peptide is used preferably at a concentration substantially between 10 μg/ml and 1 mg/ml. Indeed, no toxicity of the peptide according to the invention has been observed on dermal fibroblasts treated with peptide concentrations up to 1 mg/ml. In addition, studies conducted in order to find the toxicity genes through the SAM (Significance Analysis of Microarrays) statistical approach have shown that the cell death, the disruption of the conjunctive tissue and the tumor invasion are induced only from a high concentration of bifunctional peptide, higher than 1 mg/ml.

dermal fibroblasts = test: Toxicity on dermal fibroblasts; assay type: cell-based; settings: peptide concentrations up to 1 mg/ml
Protocol: as §8

[3] = tested on: type I and type III collagen; test: Collagen expression depending on the age of the patients; assay type: cell-based, human; settings: dermal fibroblasts from patients
Protocol: Dermal fibroblasts from younger or older patients were cultured and the bifunctional peptide according to the invention having the sequence […] (SEQ. ID NO. 1) has been tested as to the protein and gene expression of type I and type III collagen. The results obtained as regards the protein expression of the two types of collagen are visible in FIG. 5.

MMP-1 [4] = target: T1, MMP-1; test: MMP-1 activity on natural substrate, collagen fibers of human dermis (cuts of skin, immunostaining); settings: APMA-activated MMP-1, peptide 100 μg/ml, 3 h
Protocol: The effects of the peptide according to the invention were also tested on the activity of the MMP-1 in the presence of its natural substrate, i.e. the collagen fibers of human dermis.
To this end, the MMP-1 has previously been activated by APMA (4-aminophenylmercuric acetate) at 20 mM for 1 h30 at 37° C. The so activated MMP-1 was then deposited on cuts of skin having a thickness of 5μ in the presence or absence of the peptide according to the invention (100 μg/ml). After 3 h, the cuts of skin were immunostained, in order to reveal the presence of type I and III collagen, then observed by confocal microscopy. […] On the other hand, in the presence of the bifunctional peptide, the action of said MMP-1 was inhibited; indeed, the collagens I and III were detected.

urokinase [5] = target: T2, urokinase; test: Cleavage of the bifunctional peptide by the urokinase (HPLC); settings: excess of urokinase, peptide 0.45 mM
Protocol: At the pericellular level, an excess of urokinase was observed, of about 10^−4 M. The peptide could thus be cleaved by the urokinase, the latter acting in particular at the level of the arginine residues (Arg) of the portion B of the peptide according to the invention.
Studies were conducted by HPLC on a Chromolith Jupiter C18 column (50×4.6 mm), and applying a linear gradient of 0.1% TFA of acetonitrile in 0.1% TFA of water, 0 to 100% for 100 min. […] However, after the action of an excess of urokinase on the bifunctional peptide (0.45 mM), the spectral peak was different; indeed, the new peak was eluted at 20 min, thus characterizing a cleavage of the bifunctional peptide by the urokinase (FIG. 8B).

Row | Molecule | gene expression of type I collagen (COL1A1) (COL1A1 gene) | gene expression of type III collagen (COL3A1) (COL3A1 gene) | stimulation of the protein expression of the type I collagen (type I collagen) | effect on the activity of the MMP-1 on its synthetic substrate (MMP-1 [1]; 10^−5, 10^−4 and 10^−3 M) | IC50 (MMP-1 [1]; synthetic substrate, time 15 min, read-out: IC50 MMP-1 activity, peptide concentration (converted)) [µM] | increase in the synthesis of type III collagen compared to fibroblasts treated with pept 3 (type III collagen; relative to pept 3) [%] | production of type III collagen (type III collagen; vs untreated control) | mode of urokinase inhibition (urokinase [2]) | concentration from which cell death, disruption of the conjunctive tissue and tumor invasion are induced (toxicity genes) | toxicity on dermal fibroblasts (dermal fibroblasts) | action on the synthesis of collagen depending on the age of the patients [3] | action of MMP-1 on collagens I and III of cuts of skin (MMP-1 [4]) | synthesis of type III collagen (gene expression) with respect to cells treated with peptide 3 (COL3A1 gene; relative to peptide 3) | cleavage by urokinase (urokinase [5])
1 | RVRLIL [pept 4, ID NO; 32] | no effect | no effect | do not permit the stimulation | – | – | – | – | – | – | – | – | – | – | –
2 | (VGVAPG (SEQ. ID NO: 29))3 [pept 3] | stimulate | stimulate | 30% | – | – | – | – | – | – | – | – | – | – | –
3 | CC[C@H](C)[C@H](NC(=O)CN)C(=O)N[C@@H](CC(C)C)C(=O)O [pept 5, N-Gly-Ile-Leu-OH] (H-Gly-Ile-Leu-OH) | no effect | no effect | do not permit the stimulation | decreases in a dose-dependent way | 70.7 | – | – | – | – | – | – | – | – | –
4 | CC[C@H](C)[C@H](NC(=O)CNC(=O)[C@H](CC(C)C)NC(=O)[C@H](CCCNC(=N)N)NC(=O)[C@@H](NC(=O)[C@H](CCCNC(=N)N)NC(=O)CNC(=O)[C@@H]1CCCN1C(=O)[C@H](C)NC(=O)[C@@H](NC(=O)[C@H](C)NC(=O)[C@@H](NC(=O)CNC(=O)[C@@H]1CCCN1C(=O)[C@H](C)NC(=O)[C@@H](NC(=O)[C@H](C)NC(=O)[C@@H](NC(=O)CNC(=O)[C@@H]1CCCN1C(=O)[C@H](C)NC(=O)[C@@H](NC(=O)CNC(=O)[C@@H](N)C(C)C)C(C)C)C(C)C)C(C)C)C(C)C)C(C)C)C(C)C)C(=O)N[C@@H](CC(C)C)C(=O)O [pept 1] (H-VGVAPGVAVAPGVAVAPGRVRLGIL-OH) | stimulate | stimulate | 30% | – | – | 36 | more than doubled | competitive inhibitor | higher than 1 mg/ml | no toxicity | greater when the fibroblasts proceed from older patients | inhibited | increase | cleavage
5 | VGVAPGVAVAPGVAVAPGRVRLGIL [pept 2] | stimulate | stimulate | 30% | – | – | – | – | – | – | – | – | – | – | –
